Data from US20080045521A1, “PHENYLALANINE DERIVATIVES” (AstraZeneca AB, priority 2006, published 2008).

How the values were obtained:
recombinant human α5β1 = recombinant human α5β1 (Homo sapiens, UniProt P05556+P08648); assay: In vitro binding assay (a): inhibition of binding of α5β1 integrin to a fragment of human fibronectin (Fn9-10), Origen electrochemiluminescence; conditions: geometric mean of the measured IC50 values; n = number of tests
Text: (a) In Vitro Binding Assay
The assay determined the ability of compounds to inhibit binding of α5β1 integrin to a cognate ligand, a fragment of human fibronectin. The assay used Origen technology (IGEN International) to measure the compound activity. Briefly, α5β1 integrin was coated onto epoxy-paramagnetic beads (Dynal Biotech UK, Bromborough, Wirral, CH62 3QL, UK, Catalogue No 140.11) and biotinylated-fibronectin ligand was coupled to strepatividin labeled Tag-NHS-Ester (BioVeris Corporation, Witney, Oxfordshire, OX28 4GE, UK, Catalogue No 110034). The ruthenium-labeled tag emits an electrochemiluminescence signal upon stimulation which is detected by the Origen reader. […]
20 μg of recombinant human α5β1 was coated onto 4×10(7) epoxy-paramagnetic beads according to manufacturers instructions at 4° C. for 24 hours. Integrin coating and corresponding activity was subsequently measured for each batch but typically, 25 ng of coated protein was used per assay well. […]
For the assay, 25 ng (20 ul) of a5b 1-bead suspension and 40 μl of the Fn9-10/Tag pre-incubated solution were added to each well containing 20 μl of compound or control solution. Assay plates were then incubated at room temperature for a minimum of 6 hours before being analysed on an Origen plate reader. […]

[1] = biological target: T1, α5β1 integrin mediated adhesion of K562 cells (Homo sapiens, UniProt P05556+P08648); assay: In vitro cell adhesion assay (b): inhibition of adhesion of K562 cells to fibronectin fragment Fn9-10, crystal violet stain; assay type: cell-based; conditions: for IC50: K562 cells on Fn9-10, geometric mean of the measured IC50 values, n = number of tests; for activity in the cell adhesion assay (b): K562 cells, result in words
T1 construct: host or cells: K562 human erythroleukaemia cells
T1 sequence (P08648 42-894 limits assumed): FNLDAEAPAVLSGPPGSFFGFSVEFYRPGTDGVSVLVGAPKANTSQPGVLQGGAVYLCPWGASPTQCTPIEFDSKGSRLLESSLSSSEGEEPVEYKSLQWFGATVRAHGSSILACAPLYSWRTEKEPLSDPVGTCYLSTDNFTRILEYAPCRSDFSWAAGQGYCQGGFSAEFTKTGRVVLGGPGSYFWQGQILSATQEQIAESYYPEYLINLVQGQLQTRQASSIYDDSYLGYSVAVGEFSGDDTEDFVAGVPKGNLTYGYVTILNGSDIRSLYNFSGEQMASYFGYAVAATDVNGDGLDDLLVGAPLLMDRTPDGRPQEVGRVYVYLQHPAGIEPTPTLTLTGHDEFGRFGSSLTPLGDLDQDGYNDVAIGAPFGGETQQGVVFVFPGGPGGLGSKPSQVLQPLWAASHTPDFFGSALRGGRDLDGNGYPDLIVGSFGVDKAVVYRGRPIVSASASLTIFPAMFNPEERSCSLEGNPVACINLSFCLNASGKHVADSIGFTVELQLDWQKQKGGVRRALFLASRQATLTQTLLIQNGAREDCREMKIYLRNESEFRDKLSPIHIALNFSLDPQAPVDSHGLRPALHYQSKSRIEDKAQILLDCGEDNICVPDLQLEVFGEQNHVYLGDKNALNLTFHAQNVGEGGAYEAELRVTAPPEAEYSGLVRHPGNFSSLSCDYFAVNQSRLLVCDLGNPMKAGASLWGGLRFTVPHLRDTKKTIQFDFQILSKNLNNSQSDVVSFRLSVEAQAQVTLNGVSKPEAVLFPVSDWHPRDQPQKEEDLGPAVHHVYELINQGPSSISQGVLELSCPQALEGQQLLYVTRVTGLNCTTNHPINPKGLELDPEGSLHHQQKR
T1 sequence (P08648 895-1049 partner limits assumed): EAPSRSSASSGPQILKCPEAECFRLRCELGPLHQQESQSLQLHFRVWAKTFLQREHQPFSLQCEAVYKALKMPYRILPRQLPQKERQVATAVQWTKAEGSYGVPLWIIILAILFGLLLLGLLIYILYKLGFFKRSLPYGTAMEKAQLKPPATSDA
T1 sequence (P05556 21-798): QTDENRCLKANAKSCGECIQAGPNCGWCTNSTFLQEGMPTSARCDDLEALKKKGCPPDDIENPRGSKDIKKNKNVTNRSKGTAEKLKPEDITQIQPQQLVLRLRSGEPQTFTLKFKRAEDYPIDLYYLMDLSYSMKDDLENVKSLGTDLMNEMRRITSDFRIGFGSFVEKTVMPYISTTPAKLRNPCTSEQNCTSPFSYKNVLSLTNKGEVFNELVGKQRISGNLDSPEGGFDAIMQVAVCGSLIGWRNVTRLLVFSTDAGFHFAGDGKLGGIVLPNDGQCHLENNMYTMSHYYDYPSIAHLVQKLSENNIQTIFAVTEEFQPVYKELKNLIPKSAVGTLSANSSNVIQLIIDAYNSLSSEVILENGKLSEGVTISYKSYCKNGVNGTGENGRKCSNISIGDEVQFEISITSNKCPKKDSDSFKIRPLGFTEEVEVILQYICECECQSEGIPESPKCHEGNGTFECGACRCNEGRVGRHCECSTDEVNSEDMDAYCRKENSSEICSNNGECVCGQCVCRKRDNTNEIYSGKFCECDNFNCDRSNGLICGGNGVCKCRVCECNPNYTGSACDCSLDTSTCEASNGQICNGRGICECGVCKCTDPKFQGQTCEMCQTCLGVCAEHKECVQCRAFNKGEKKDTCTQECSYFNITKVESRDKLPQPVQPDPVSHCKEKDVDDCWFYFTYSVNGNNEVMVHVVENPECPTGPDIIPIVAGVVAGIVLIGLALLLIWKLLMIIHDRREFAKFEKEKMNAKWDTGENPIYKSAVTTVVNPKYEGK
Text: (b) In Vitro Cell Adhesion Assay
The assay determined the ability of compounds to inhibit the α5β1 integrin mediated adhesion of K562 cells to the ligand, a fragment of human fibronectin. The human K562 erythroleukaemia cell line (LGC Promochem, Teddington, Middlesex, UK, Catalogue No. CCL-243) was routinely maintained in RPMI 1640 medium (Sigma-Aldrich Company Ltd, Gillingham, Dorset SP8 4XT, Catalogue No. R0883) containing 10% heat-inactivated foetal calf serum (PAA lab GmbH, Pasching, Austria Catalogue No. PAA-A15-043) and 1% glutamax-1 (Invitrogen Ltd. Paisley, UK Catalogue No. 35050-038) at 37° C. with 5% CO2 at densities between 1×10^5 and 1×10^6 cells/ml.
A DNA fragment encoding the domains 9-10 (amino-acids 1325-1509) of human fibronectin (Swiss-Prot Accession No. P02751) was isolated from cDNA libraries using standard molecular biology and PCR cloning techniques. The cDNA fragment was sub-cloned into a pT7#3.3 expression vector containing a GST-epitope tag (developed at AstraZeneca; Bagnall et al., Protein Expression and Purification, 2003, 27: 1-11), and the fragment termed Fn9-10. Following expression in E. coli, the expressed protein was purified using the GST-tag using standard purification techniques.
For adhesion assay, a 96-well flat bottomed plate (Greiner Bio one ltd., Gloucester GL10 3 SX Catalogue No. 655101) was coated overnight at 4° C. with 100 μl of 20 μg/ml Fn9-10 ligand in Dulbecco's PBS (Gibco#14190-94). The plate was then washed twice with 200 μl of PBS and blocked with 100 μl of 3% BSA (SigmaA7888) in PBS for 1 hour at 37° C. The plates were then washed again 3 times with 200 μl of PBS and left empty.
Test compounds were prepared as 10 mM stock solutions in DMSO (Sigma-Aldrich Company Ltd, Gillingham, Dorset SP8 4XT Catalogue No. 154938) and serially diluted with HBSS (Hanks Buffered Salt solution (Gibco Catalogue No. 14170-088)/2% DMSO to give a range of test concentrations at twice required final concentration. Aliquots (50 μl) of each compound dilution were placed into each well of the Fn9-10 coated plates. Each plate also contained control wells: maximum adhesion signal was created using wells containing 50 μl HBSS/2% DMSO, and minimum signal corresponding to no adhesion was created using wells containing 50 μl HBSS/2% DMSO /20 mM EDTA (Sigma Catalogue No. E7889). […]
After fixation, the ethanol was flicked off to waste and 100 μl of 0.1% Crystal violet stain was added to each well, and incubated at ambient temperature for 15 minutes. […] Finally, 100 μl of deionised water was added to each well and the absorbance was determined at 590 nm on a spectrophotometer. The minimum value was subtracted from all values, and the absorbance signal was plotted against compound concentration to generate IC50 data.

Sequence of recombinant human α5β1 (P08648 42-1049): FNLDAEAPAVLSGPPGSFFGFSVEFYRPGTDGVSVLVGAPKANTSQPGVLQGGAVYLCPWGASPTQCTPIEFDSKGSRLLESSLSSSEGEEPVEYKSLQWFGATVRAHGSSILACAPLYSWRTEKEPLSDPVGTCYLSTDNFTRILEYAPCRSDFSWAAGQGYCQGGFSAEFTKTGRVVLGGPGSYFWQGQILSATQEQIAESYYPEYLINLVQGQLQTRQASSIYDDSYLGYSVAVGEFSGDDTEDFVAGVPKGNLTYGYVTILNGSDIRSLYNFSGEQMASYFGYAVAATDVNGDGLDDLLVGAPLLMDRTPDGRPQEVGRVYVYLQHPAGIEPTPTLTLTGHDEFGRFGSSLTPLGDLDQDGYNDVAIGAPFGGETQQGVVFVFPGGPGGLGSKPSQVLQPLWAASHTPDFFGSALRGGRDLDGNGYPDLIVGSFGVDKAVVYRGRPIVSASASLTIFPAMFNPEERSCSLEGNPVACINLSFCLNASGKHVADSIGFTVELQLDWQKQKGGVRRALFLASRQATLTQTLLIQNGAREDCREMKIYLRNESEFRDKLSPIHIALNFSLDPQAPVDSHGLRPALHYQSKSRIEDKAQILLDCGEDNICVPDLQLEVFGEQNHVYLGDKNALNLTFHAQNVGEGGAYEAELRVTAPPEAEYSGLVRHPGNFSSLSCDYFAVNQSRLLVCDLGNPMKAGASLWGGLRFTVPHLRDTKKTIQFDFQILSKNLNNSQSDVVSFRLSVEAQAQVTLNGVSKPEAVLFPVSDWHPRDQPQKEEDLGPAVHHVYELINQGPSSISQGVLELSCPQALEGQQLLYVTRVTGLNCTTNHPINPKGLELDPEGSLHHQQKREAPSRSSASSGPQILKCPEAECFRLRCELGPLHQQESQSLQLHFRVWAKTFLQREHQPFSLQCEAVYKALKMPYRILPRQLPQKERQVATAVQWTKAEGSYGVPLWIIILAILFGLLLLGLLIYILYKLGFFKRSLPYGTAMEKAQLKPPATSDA
Sequence of recombinant human α5β1 (P05556 21-798): as the sequence (P05556 21-798) above

For `O=C(N[C@@H](Cc1ccc(OCCc2ccc3c(n2)NCCC3)cc1)C(=O)O)c1c(Cl)cccc1Cl` [Example 3, N-(2,6-dichlorobenzoyl)-O-[2-(5,6,7,8-tetrahydro-1,8-naphthyridin-2-yl)ethyl]-L-tyrosine], the IC50 (recombinant human α5β1) was 0.4 nM and the IC50 [1] was 2 nM.
`CNc1cccc(CCCc2ccc(C[C@H](NC(=O)c3c(Cl)cccc3Cl)C(=O)O)s2)n1` [Example 29, N-(2,6-dichlorobenzoyl)-3-(5-{3-[6-(methylamino)pyridin-2-yl]propyl}-2-thienyl)-L-alanine] gave an IC50 (recombinant human α5β1) of 2 nM and an IC50 [1] of 31 nM.
`O=C(N[C@@H](Cc1cccc(OCCCCNc2ccccn2)c1)C(=O)O)c1c(Cl)cccc1Cl` [N-(2,6-dichlorobenzoyl)-3-[4-(pyridin-2-ylamino)butoxy]-L-phenylalanine] was tested, and the “activity in the cell adhesion assay (b)” value [1] was “low activity”.
In the case of `O=C(N[C@@H](Cc1cccc(OCCNc2ccccn2)c1)C(=O)O)c1c(Cl)cccc1Cl` [N-(2,6-dichlorobenzoyl)-3-[2-(pyridin-2-ylamino)ethoxy]-L-phenylalanine], the “activity in the cell adhesion assay (b)” value [1] is reported as “low activity”.
